Results as given in patent US8410170B2, “Use of isothiocyanates compounds in treating prostatic diseases and skin cancer” (Wuxi JC Pharmaceutical Technology Co., Ltd., priority 2005, dated 2013).
Like-named read-outs stand apart in the source and are kept apart here.

Tests used:
[1] = In vitro dissolution (paddle method, HPLC); type: physicochemical; conditions: 500 ml water, 37° C., 45 min, paddle 200 r/min
Procedure: Dissolution Measurement: Dissolution rates of the compositions were measured according to the procedures described in the Chinese Pharmacopeia 2005, Appendix XC, Method 2: Paddle Determination. Briefly, samples are added into 500 ml of de-aired, and deionized water which is kept at 37±0.5° C. for 45 min while the paddle rotates at 200 r/min. Take samples and let the sample be passed through the 0.8 μm filter membrane, and analyzed by HPLC. The dissolution rate was then calculated.

B16 mouse melanoma cells = assay: MTT cell growth inhibition, B16 melanoma; type: cell-based
Procedure: B16 mouse melanoma cells at exponential growth phase were digested by 0.25% trypsin, adjusted to the density of 3˜5×10^4/mL by adding the above working RPMI 1640 medium, sed into 96-well dishes at 150 μl per well, under normal culture conditions mentioned above. […] Equal volume of the working RPMI 1640 medium was added into the wells of the control group. Each group had four wells. After incubation, discarded the supernatant, added 150 μl D-Hanks per well, washed, discarded the supernatant. After adding 100 μl MTT (0.5 mg/mL), incubated for another 4 hrs. Discarded the supernatant, added 150 μl DMSO, kept at 37° C. for 10 mins. Absorbance was measured at wavelength of 570 nm.

BPH = assay: Therapeutic effects on BPH: Test One (castrated rats, testosterone propionate); type: in vivo, SD rats; conditions: for Average Weight of Prostate: one month
Procedure: Sixty male SD rats were randomly divided into 6 groups, ten each. The animals were anesthetized using ketamine and castrated by removing testis under sterile conditions. After the surgery, the penicillin was injected to prevent the animals from infection. One week later, the testosterone propionate was injected subcutaneously at dose of 1 mg/rat for a month, once a day. Group 1 was served as a negative control group, and the animals of group 1 were given saline orally without any active pharmaceutical ingredient for a month beginning on the same day the testosterone propionate was injected. Group 2 was served as positive control group in which animals were given estradiol subcutaneously at a dose of 0.1 mg/rat for a month beginning on the same day the testosterone propionate was injected. Groups from 3 to 6 was served as drug treatment groups in which animals were given tested articles on the same day the testosterone propionate was injected.
Twenty-four hrs after the last dosage, the animals were euthanized and weighed. Volume and weight of prostate were measured. The averages of volume/weight and organ coefficient (average weight of prostate/average of body weight) were calculated, and statistical analysis performed (t test).

[2] = test system: xenograft B16 mouse tumor; conditions: 15 days
Procedure: The B16 mouse melanoma cells at exponential growth phase were suspended in PBS. […] Adjusted the suspension to a cell concentration of approximately 1×10^7/ml. 0.2 ml of the suspension were transplanted subcutaneously into right axillary subcutis for passaging.
Under sterile condition the xenograft B16 mouse tumor in mice was stripped from axillary subcutis. After cutting by scissors, the tumor with saline (1:3) was ground in a glass homogenizer. Monocell suspension was made with saline. […] Then adjusted the suspension to a cell density of approximately 1×10^7/ml with saline. 0.2 ml were transplanted subcutaneously into right axillary subcutis of each mouse. After transplanting, randomly divided the mouse into 5 groups, 12 each.
Tumors were taken out, sizes and weights were measured, and the percent of inhibitions were calculated.

androgen-induced BPH = assay: Therapeutic effects on BPH: Test Two (castrated rats, testosterone propionate; weights and histopathology); type: in vivo, SD rats
Procedure: Thirty-six male SD rats were randomly divided into 4 groups, nine each. Group 1 was served as blank control group (pseudo-surgery control group) in which animals were under the same surgical procedures except no testis was sectioned and fed normally. Groups from 2 to 4 were served as treatment groups in which all animals were anesthetized using ketamine and castrated by removing both testises under sterile conditions. After the surgery, the penicillin was injected to prevent the animals from infection. One week later, the testosterone propionate was injected subcutaneously at dose of 5 mg/kg, once a day for a month. […] Group 3 was served as positive control group in which animals were given Proscar by gavage at dose of 0.1 mg/rat/day for a month beginning on the same day that the testosterone propionate was injected.
Twenty-four hrs after the last dose, the animals were euthanized and weighed. Volume and weight of prostate were measured. The averages of prostate volume/weight and organ coefficient (average weight of prostate/average of body weight) were calculated, and statistical analysis performed (t test).
Prostate tissues of animals from different groups were embedded with paraffin. The tissue sections were stained with H&E for histpathological examination by an anatomical pathologist.

S=C=NCCc1ccccc1 [PEITC, phenethyl isothiocyanate]
Dissolution Rate [1]: 0%
IC50 (B16 mouse melanoma cells; B16 mouse melanoma cell line): 10 to 20 µM
inhibition at 2.5 µM (B16 mouse melanoma cells; Mus musculus, B16, 48 h, 2.5 μmol/L, 48 h, B16): 14.5%
inhibition at 5 µM (B16 mouse melanoma cells; Mus musculus, B16, 48 h, 5.0 μmol/L, 48 h, B16): 27.9%
inhibition at 7.5 µM (B16 mouse melanoma cells; Mus musculus, B16, 48 h, 7.5 μmol/L, 48 h, B16): 36.7%
inhibition at 10 µM (B16 mouse melanoma cells; Mus musculus, B16, 48 h, 10.0 μmol/L, 48 h, B16): 49.2%
inhibition at 12.5 µM (B16 mouse melanoma cells; Mus musculus, B16, 48 h, 12.5 μmol/L, 48 h, B16): 58.4%
inhibition at 15 µM (B16 mouse melanoma cells; Mus musculus, B16, 48 h, 15.0 μmol/L, 48 h, B16): 63.7%
inhibition at 20 µM (B16 mouse melanoma cells; Mus musculus, B16, 48 h, 20.0 μmol/L, 48 h, B16): 77.3%
inhibition at 30 µM (B16 mouse melanoma cells; Mus musculus, B16, 48 h, 30.0 μmol/L, 48 h, B16): 89.6%
inhibition at 40 µM (B16 mouse melanoma cells; Mus musculus, B16, 48 h, 40.0 μmol/L, 48 h, B16): > 96%
Average Weight of Prostate (BPH; aqueous base formulation (Example 13-11), 1 mg/kg gavage): 0.75 g
Average Weight of Prostate (BPH; aqueous base formulation (Example 13-11), 4 mg/kg gavage): 0.83 g
Organ Coefficient (BPH; aqueous base formulation, 1 mg/kg): 0.21%
Organ Coefficient (BPH; aqueous base formulation, 4 mg/kg): 0.23%
Average Weight of Prostate (BPH; oil base formulation (Example 13-3), 1 mg/kg gavage): 0.91 g
Average Weight of Prostate (BPH; oil base formulation (Example 13-3), 4 mg/kg gavage): 0.79 g
Organ Coefficient (BPH; oil base formulation, 1 mg/kg): 0.25%
Organ Coefficient (BPH; oil base formulation, 4 mg/kg): 0.23%
Changes in Body Weight ([2]; PEITC 70 mg/kg/d gavage (Example 13-16)): 9.78 ± 4.28 g
Average of Tumor Weight ([2]; PEITC 70 mg/kg/d gavage): 1.23 ± 0.68 g
Inhibition ([2]; PEITC 70 mg/kg/d gavage): 39.23%
Changes in Body Weight ([2]; PEITC 120 mg/kg/d gavage (Example 13-16)): 6.34 ± 3.42 g
Average of Tumor Weight ([2]; PEITC 120 mg/kg/d gavage): 0.91 ± 0.23**∇ g
Inhibition ([2]; PEITC 120 mg/kg/d gavage): 58.54%
Average Body Weight (androgen-induced BPH; PEITC 2 mg/kg oral (Example 13-11), one month): 337 ± 23.7 g
Average Volume of Prostate (androgen-induced BPH; PEITC 2 mg/kg oral, one month): 1.42 ± 0.16 cm^3
Average Weight of Prostate (androgen-induced BPH; PEITC 2 mg/kg oral, one month): 1.20 ± 0.16 g
Inhibition of Organ Coefficient (androgen-induced BPH; PEITC 2 mg/kg oral, one month): 16.28%
Organ Coefficient (androgen-induced BPH; PEITC 2 mg/kg oral, one month): 0.36 ± 0.06%
Acinar Density: no. of animals with score 0 (androgen-induced BPH; PEITC 2 mg/kg, 9 animals): 7
Acinar Density: no. of animals with score + (androgen-induced BPH; PEITC 2 mg/kg, 9 animals): 2
Acinar Density: no. of animals with score ++ (androgen-induced BPH; PEITC 2 mg/kg, 9 animals): 0
Acinar Density: no. of animals with score +++ (androgen-induced BPH; PEITC 2 mg/kg, 9 animals): 0
Connective tissue proliferation, or papillary hyperplasia: no. of animals with score 0 (androgen-induced BPH; PEITC 2 mg/kg, 9 animals): 8
Connective tissue proliferation, or papillary hyperplasia: no. of animals with score + (androgen-induced BPH; PEITC 2 mg/kg, 9 animals): 1
Connective tissue proliferation, or papillary hyperplasia: no. of animals with score ++ (androgen-induced BPH; PEITC 2 mg/kg, 9 animals): 0
Connective tissue proliferation, or papillary hyperplasia: no. of animals with score +++ (androgen-induced BPH; PEITC 2 mg/kg, 9 animals): 0
Enlargement of Lumen of Gland: no. of animals with score 0 (androgen-induced BPH; PEITC 2 mg/kg, 9 animals): 3
Enlargement of Lumen of Gland: no. of animals with score + (androgen-induced BPH; PEITC 2 mg/kg, 9 animals): 6
Enlargement of Lumen of Gland: no. of animals with score ++ (androgen-induced BPH; PEITC 2 mg/kg, 9 animals): 0
Enlargement of Lumen of Gland: no. of animals with score +++ (androgen-induced BPH; PEITC 2 mg/kg, 9 animals): 0
Histopathological score of BPH, Average X ± SD (androgen-induced BPH; PEITC 2 mg/kg, 9 animals): 1.78 ± 1.09
Secretions of Gland: no. of animals with score 0 (androgen-induced BPH; PEITC 2 mg/kg, 9 animals): 3
Secretions of Gland: no. of animals with score + (androgen-induced BPH; PEITC 2 mg/kg, 9 animals): 5
Secretions of Gland: no. of animals with score ++ (androgen-induced BPH; PEITC 2 mg/kg, 9 animals): 1
Secretions of Gland: no. of animals with score +++ (androgen-induced BPH; PEITC 2 mg/kg, 9 animals): 0
lumen, secretary materials in the lumen and density of prostatic acinars, versus untreated BPH tissues (slide) (androgen-induced BPH; PEITC 2 mg/kg, FIG. 6.5): reduced
